{"source": "patent US6943183B2", "about": "(Pfizer Inc, priority 2000, dated 2005)", "molecular_target": "T1, SF9 affinity purified rat FPT (Rattus norvegicus, UniProt Q02293+Q04631)", "T1 construct": "made in house; host or cells: Sf9 insect cells", "test": "PFT (FPT) inhibitory activity assay, radiolabeled farnesyl pyrophosphate and biotinyl peptide, streptavidin beads", "type": "biochemical", "settings": "HEPES buffer pH 7.4, 30° C., 30 minutes; read-out: FTase IC50", "summary_of_the_method": "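Rat FPT expressed in SF9 cells was incubated 30 minutes at 30° C. with compound (in 10% DMSO), radiolabeled farnesyl pyrophosphate and biotinylated peptide. Buffer: HEPES pH 7.4, ZnCl2 20 μM, MgCl2 and DTT 5 mM each, 0.1% PEG 8000, 5 mM potassium phosphate (also run without phosphate). Product captured on streptavidin beads in magnesium acetate/H3PO4 stop buffer.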"}
{"smiles": "CN(C)CCNC(=O)c1ccccc1S(=O)(=O)Cc1c(O[C@H](Cn2ccnc2)c2ccccc2)ccc2c1CCCC2=O", "note": "[Compound 180, N-[2-(Dimethylamino)ethyl]-2-{[(2-{[(1S)-2-(1H-imidazol-1-yl)-1-phenylethyl]oxy}-5-oxo-5,6,7,8-tetrahydro-1-naphthalenyl)methyl]sulfonyl}benzamide]", "values": [{"measurement": "IC50", "result": 6, "unit": "nM"}]}
{"smiles": "CN(C)CCNC(=O)c1ccc(S(=O)(=O)Cc2c(O[C@H](Cn3ccnc3)c3ccccc3)ccc3c2CCCC3=O)cc1", "note": "[Compound 181, N-[2-(Dimethylamino)ethyl]-4-{[(2-{[(1S)-2-(1H-imidazol-1-yl)-1-phenylethyl]oxy}-5-oxo-5,6,7,8-tetrahydro-1-naphthalenyl)methyl]sulfonyl}benzamide]", "values": [{"measurement": "IC50", "result": 20, "unit": "nM"}]}
{"smiles": "CN(C)CCNC(=O)c1cccc(S(=O)(=O)Cc2c(O[C@H](Cn3ccnc3)c3ccccc3)ccc3c2CCCC3=O)c1", "note": "[Compound 182, N-[2-(Dimethylamino)ethyl]-3-{[(2-{[(1S)-2-(1H-imidazol-1-yl)-1-phenylethyl]oxy}-5-oxo-5,6,7,8-tetrahydro-1-naphthalenyl)methyl]sulfonyl}benzamide]", "values": [{"measurement": "IC50", "result": 10, "unit": "nM"}]}
{"smiles": "CCOC(=O)CCNC(=O)c1ccccc1S(=O)(=O)Cc1c(O[C@H](Cn2ccnc2)c2ccccc2)ccc2c1CCCC2=O", "note": "[Compound 183, Ethyl 3-[(2-{[(2-{[(1S)-2-(1H-Imidazol-1-yl)-1-phenylethyl]oxy}-5-oxo-5,6,7,8-tetrahydro-1-naphthalenyl)methyl]sulfonyl}benzoyl)amino]propanoate]", "values": [{"measurement": "IC50", "result": 7, "unit": "nM"}]}
{"smiles": "CCOC(=O)C(C)NC(=O)c1ccccc1S(=O)(=O)Cc1c(O[C@H](Cn2ccnc2)c2ccccc2)ccc2c1CCCC2=O", "note": "(stereo partly drawn) [Compound 185, Ethyl 2-[(2-{[(2-{[(1S)-2-(1H-Imidazol-1-yl)-1-phenylethyl]oxy}-5-oxo-5,6,7,8-tetrahydro-1-naphthalenyl)methyl]sulfonyl}benzoyl)amino]propanoate]", "values": [{"measurement": "IC50", "result": 4, "unit": "nM"}]}
{"smiles": "CCOC(=O)C(C)NC(=O)c1ccccc1SCc1c(O[C@H](Cn2ccnc2)c2ccccc2)ccc2c1CCCC2=O", "note": "(stereo partly drawn) [Compound 186, Ethyl 2-[(2-{[(2-{[(1S)-2-(1H-Imidazol-1-yl)-1-phenylethyl]oxy}-5-oxo-5,6,7,8-tetrahydro-1-naphthalenyl)methyl]sulfanyl}benzoyl)amino]propanoate]", "values": [{"measurement": "IC50", "result": 4, "unit": "nM"}]}
{"smiles": "CCOC(=O)CCNC(=O)c1ccccc1SCc1c(O[C@H](Cn2ccnc2)c2ccccc2)ccc2c1CCCC2=O", "note": "[Compound 187, Ethyl 3-[(2-{[(2-{[(1S)-2-(1H-Imidazol-1-yl)-1-phenylethyl]oxy}-5-oxo-5,6,7,8-tetrahydro-1-naphthalenyl)methyl]sulfanyl}benzoyl)amino]propanoate]", "values": [{"measurement": "IC50", "result": 7, "unit": "nM"}]}
{"smiles": "CNC(=O)c1ccc(S(=O)(=O)Cc2c(O[C@H](Cn3ccnc3)c3ccccc3)ccc3c2CCCC3=O)cc1", "note": "[Compound 189, 4-{[(2-{[(1S)-2-(1H-2-Imidazol-1-yl)-1-phenylethyl]oxy}-5-oxo-5,6,7,8-tetrahydro-1-naphthalenyl)methyl]sulfonyl}-N-methylbenzamide]", "values": [{"measurement": "IC50", "result": 10, "unit": "nM"}]}
{"smiles": "CNC(=O)c1cccc(S(=O)(=O)Cc2c(O[C@H](Cn3ccnc3)c3ccccc3)ccc3c2CCCC3=O)c1", "note": "[Compound 190, 3-{[(2-{[(1S)-2-(1H-imidazol-1-yl)-1-phenylethyl]oxy}-5-oxo-5,6,7,8-tetrahydro-1-naphthalenyl)methyl]sulfonyl}-N-methylbenzamide]", "values": [{"measurement": "IC50", "result": 8, "unit": "nM"}]}
{"smiles": "CNC(=O)c1ccc(SCc2c(O[C@H](Cn3ccnc3)c3ccccc3)ccc3c2CCCC3=O)cc1", "note": "[Compound 191, 4-{[(2-{[(1S)-2-(1H-Imidazol-1-yl)-1-phenylethyl]oxy}-5-oxo-5,6,7,8-tetrahydro-1-naphthalenyl)methyl]sulfanyl}-N-methylbenzamide]", "values": [{"measurement": "IC50", "result": 2, "unit": "nM"}]}
{"smiles": "CNC(=O)c1cccc(SCc2c(O[C@H](Cn3ccnc3)c3ccccc3)ccc3c2CCCC3=O)c1", "note": "[Compound 192, 3-{[(2-{[(1S)-2-(1H-Imidazol-1-yl)-1-phenylethyl]oxy}-5-oxo-5,6,7,8-tetrahydro-1-naphthalenyl)methyl]sulfanyl}-N-methylbenzamide]", "values": [{"measurement": "IC50", "result": 7, "unit": "nM"}]}
{"smiles": "CNC(=O)c1ccccc1SCc1c(O[C@H](Cn2ccnc2)c2ccccc2)ccc2c1CCCC2=O", "note": "[Compound 193, 2-{[(2-{[(1S)-2-(1H-Imidazol-1-yl)-1-phenylethyl]oxy}-5-oxo-5,6,7,8-tetrahydro-1-naphthalenyl)methyl]sulfanyl}-N-methylbenzamide]", "values": [{"measurement": "IC50", "result": 5, "unit": "nM"}]}
{"smiles": "C[C@@H](O)CNC(=O)c1ccccc1SCc1c(O[C@H](Cn2ccnc2)c2ccccc2)ccc2c1CCCC2=O", "note": "[Compound 194, N-[(2R)-2-Hydroxypropyl]-2-{[(2-{[(1S)-2-(1H-imidazol-1-yl)-1-phenylethyl]oxy}-5-oxo-5,6,7,8-tetrahydro-1-naphthalenyl)methyl]sulfanyl}benzamide]", "values": [{"measurement": "IC50", "result": 0.2, "unit": "nM"}]}
{"smiles": "C[C@@H](O)CNC(=O)c1ccc(SCc2c(O[C@H](Cn3ccnc3)c3ccccc3)ccc3c2CCCC3=O)cc1", "note": "[Compound 195, N-[(2R)-2-Hydroxypropyl]-4-{[(2-{[(1S)-2-(1H-imidazol-1-yl)-1-phenylethyl]oxy}-5-oxo-5,6,7,8-tetrahydro-1-naphthalenyl)methyl]sulfanyl}benzamide]", "values": [{"measurement": "IC50", "result": 0.2, "unit": "nM"}]}
{"smiles": "C[C@H](O)CNC(=O)c1ccc(SCc2c(O[C@H](Cn3ccnc3)c3ccccc3)ccc3c2CCCC3=O)cc1", "note": "[Compound 196, N-[(2S)-2-Hydroxypropyl]-4-{[(2-{[(1S)-2-(1H-imidazol-1-yl)-1-phenylethyl]oxy}-5-oxo-5,6,7,8-tetrahydro-1-naphthalenyl)methyl]sulfanyl}benzamide]", "values": [{"measurement": "IC50", "result": 0.2, "unit": "nM"}]}
{"smiles": "C[C@H](O)CNC(=O)c1cccc(SCc2c(O[C@H](Cn3ccnc3)c3ccccc3)ccc3c2CCCC3=O)c1", "note": "[Compound 197, N-[(2S)-2-Hydroxypropyl]-3-{[(2-{[(1S)-2-(1H-imidazol-1-yl)-1-phenylethyl]oxy}-5-oxo-5,6,7,8-tetrahydro-1-naphthalenyl)methyl]sulfanyl}benzamide]", "values": [{"measurement": "IC50", "result": 0.2, "unit": "nM"}]}
{"smiles": "C[C@H](O)CNC(=O)c1ccccc1SCc1c(O[C@H](Cn2ccnc2)c2ccccc2)ccc2c1CCCC2=O", "note": "[Compound 198, N-[(2S)-2-Hydroxypropyl]-2-{[(2-{[(1S)-2-(1H-imidazol-1-yl)-1-phenylethyl]oxy}-5-oxo-5,6,7,8-tetrahydro-1-naphthalenyl)methyl]sulfanyl}benzamide]", "values": [{"measurement": "IC50", "result": 0.2, "unit": "nM"}]}
{"smiles": "C[C@H](O)CNC(=O)c1ccc(S(=O)(=O)Cc2c(O[C@H](Cn3ccnc3)c3ccccc3)ccc3c2CCCC3=O)cc1", "note": "[Compound 199, N-[(2S)-2-Hydroxypropyl]-4-{[(2-{[(1S)-2-(1H-imidazol-1-yl)-1-phenylethyl]oxy}-5-oxo-5,6,7,8-tetrahydro-1-naphthalenyl)methyl]sulfonyl}benzamide]", "values": [{"measurement": "IC50", "result": 0.4, "unit": "nM"}]}
{"smiles": "C[C@H](O)CNC(=O)c1cccc(S(=O)(=O)Cc2c(O[C@H](Cn3ccnc3)c3ccccc3)ccc3c2CCCC3=O)c1", "note": "[Compound 200, N-[(2S)-2-Hydroxypropyl]-3-{[(2-{[(1S)-2-(1H-imidazol-1-yl)-1-phenylethyl]oxy}-5-oxo-5,6,7,8-tetrahydro-1-naphthalenyl)methyl]sulfonyl}benzamide]", "values": [{"measurement": "IC50", "result": 0.24, "unit": "nM"}]}
{"smiles": "C[C@H](O)CNC(=O)c1ccccc1S(=O)(=O)Cc1c(O[C@H](Cn2ccnc2)c2ccccc2)ccc2c1CCCC2=O", "note": "[Compound 201, N-[(2S)-2-Hydroxypropyl]-2-{[(2-{[(1S)-2-(1H-imidazol-1-yl)-1-phenylethyl]oxy}-5-oxo-5,6,7,8-tetrahydro-1-naphthalenyl)methyl]sulfonyl}benzamide]", "values": [{"measurement": "IC50", "result": 0.2, "unit": "nM"}]}
